19 molecules from US6784155B1, “Inhibitor and stimulator of stem cell proliferation and uses thereof” (Wellstat Therapeutics Corporation, priority 1996, dated 2004) can be followed below.

Test [1] relates to CFU-MIX. Briefly: CFU-MIX cycling assay in vitro (Ara C kill). In kind it is cell-based, mouse. How it is done: A similar assay can be performed in vitro, using the cycling status of CFU-MIX instead of CFU-S. The assay is performed as described above for the CFU-S assay except that cytosine arabinoside (Ara C, 30 micrograms/ml) is used as the cycle-specific toxic agent instead of high dose tritiated thymidine (see B. I. Lord in Haemopoiesis—A Practical Approach, N. G. Testa and G. Molineux (Eds.), IRL Press 1993; Pragnell et al. in Culture of Hematopoietic Cells, R. I. Freshney, I. B. Pragnell and M. G. Freshney (Eds.), Wiley Liss 1994) and a mouse strain with high endogenous cycling rates (Balb/c) is used instead of testosterone-treated BDFI mice.
(§1) 24 hours later (Day 1), varying doses of peptide 43-55 or vehicle were injected i.v. Bone marrow was harvested on Day 2 and the […] cycling assay conducted as in Example 14. Specifically, mice were sacrificed and single cell bone marrow suspensions prepared from the femurs. The cells were washed once and the concentration adjusted to 5×10^6 cells/ml in Fischer medium. For each test condition, one milliliter of cells was added to each of two polypropylene tubes. The tubes were incubated at 37° C. for 3 hours without (“Control”) or with (“Experimental”) the appropriate concentration of test substance. At the end of the incubation, 30 μg/ml of cytosine arabinoside (“Ara C” (Sigma)) was added to half of the tubes and the same volume of Fischer's medium was added to the others. The tubes were incubated for a further 1 hour at 37° C., after which they were placed on ice and washed twice with cold Fischer medium.
(§2) The cells were readjusted to 5×10^4-10^6/ml in Fischer's medium and 0.5 ml of cell suspension added to 5 ml of Methocult M3430 methylcellulose medium (Stem Cell Technologies, Vancouver, British Columbia). The mixture was vigorously mixed with a vortex and 1 ml was dispensed into each of five 35 mm dishes. The 35 mm dishes were in turn placed in a covered 150 mm dish with one open 35 mm dish containing sterile water. CFU-MIX colonies were counted with the use of an inverted microscope after 7 days of incubation at 37° C.
Differences in colony number between the tubes treated with medium versus the tubes treated with Ara C represent the percentage of cells in cycle under that condition according to the formula:
a=Number of CFU-MIX from tube incubated with medium alone
b=Number of CFU-MIX from tube incubated with Ara C

Test [2] concerns CFU-MIX. Kind of test: Stimulation of cycling of quiescent murine stem cells, CFU-MIX cycling assay in vitro. The class given is cell-based, mouse. The procedure: Microgram per milliliter doses of hemoglobin chains, myoglobin and peptides were assayed for stimulation of quiescent stem cells. Bone marrow was obtained from untreated B6D2F1 tested in the CFU-MIX cycling assay as in Example 24. Stem cells isolated from untreated B6D2F1 mice are normally slowly cycling unless stimulated (e.g. by testosterone propionate (cf. Example 1) or chemotherapy such as 5FU (cf. Example 4)) to enter into cycle.

For test [3], the system named is CFU-GEMM. Kind of test: CFU-GEMM cycling assay, mobilized human peripheral blood. The class given is cell-based. How it is done:
Peripheral blood was obtained from breast cancer patients undergoing peripheral stem cell mobilization with cyclophosphamide and G-CSF according to standard protocols. Red blood cells were removed with FicolU Hypaque (cells were diluted 1:1 with IMDM and 20 ml layered on top of 16 ml Ficoll and centrifuged at 800 g for 30 minutes; mononuclear cells were removed from the interphase and washed twice in IMDM). In one case mononuclear cells were stored frozen in liquid nitrogen before assay. The mononuclear cells were plated for the CFU-GEMM cycling assay as in Example 26 except that 2.5-5×10^5 cells were plated per dish.

In test [4] the test system is CFU-GEMM. Kind of test: CFU-GEMM cycling assay, human umbilical cord blood cells. As to conditions: Table 32, cord blood mononuclear cells. In kind it is cell-based. How it is done: In order to investigate the ability of purified INPROL from porcine bone marrow to affect cycling on human progenitors, umbilical cord blood cells were obtained. Either the total mononuclear cell fraction obtained after separation on Ficoll or the CD34^+ fraction obtained after fractionation on anti-CD34 affinity columns (CellPro Inc.) was used. Cells were incubated for 48 hours in vitro in the presence of interleukin 3 (IL-3) and stem cell factor (SCF) (100 ng/ml each) in order to ensure that the early stem cells were in cycle. After this preincubation, cycling assays were conducted as described in Example 14 for the mouse except that CFU-GEMM (instead of CFU-MIX) were counted on Day 18 after plating.
The human cord blood CFU-GEMM cycling assay was conducted as in Example 19. Specifically, mononuclear cells were isolated from human umbilical cord blood cells and adjusted to 24×10^4 cells/ml in IMDM tissue culture medium supplemented with 10% FBS, 100 ng/ml kit ligand and 100 ng/ml human IL-3. The cells were incubated for 48 hours at 37° C.
After incubation, cells were washed and resuspended in serun-free NDM at a concentration of 10^6 cells/ml. One ml of cells was added to each of two polypropylene tubes per condition and the cycling assay conducted as in Example 24 for mouse bone marrow. After the Ara C incubation cells were washed with cold NDM and adjusted to 10,000 to 20,000 cells per 0.5 ml IMDM and mixed with 5 ml Methocult H4433 (Stem Cell Technologies). Alternatively, Methocult H4435 methylcellulose medium (Stem Cell Technologies) was used in which case the cell concentration was adjusted to 2500-5000 cells per 0.5 ml IMDM. The cells were plated as in Example 24 and CFU-GEMM colonies scored on days 14-18.

The subject of test [5] is CFU-MIX. Briefly: CFU-MIX cycling assay after in vivo injection into testosterone or 5FU treated mice. More on the design: species or system mouse. How it is done:
In order to test the ability of purified porcine hemoglobin chains to act in vivo, BDF1 mice were injected with testosterone propionate as described in Example 1. Twenty four hours later, mice received 500 ng of either pINPROL, porcine hemoglobin alpha chain (purified from peripheral red blood cells as in FIG. 21), porcine beta chain (purified from peripheral red blood cells as in FIG. 21) or the equivalent volume of carrier intravenously. Forty eight hours later the bone marrow from each mouse was harvested and the CFU-MIX assay conducted as described in Example 14.
To assess the stem cell inhibitory activity of peptide 43-55 in vivo, B6D2 F1 mice were pre-treated with testosterone propionate as described in Example 1 or with 5FU. Specifically, testosterone propionate (100 mg/kg body weight) was injected i.p. on Day 0 into mice. Alternatively, mice were injected on Day 0 with 5FU ([…] body weight).
as §1, §2
Differences in colony number between the tubes treated with medium versus the tubes treated with Ara C represent the percentage of cells in cycle under that condition according to the formula: […]

The mark [6] stands for this setting: Table 39, untreated B6D2F1 bone marrow, 10^−3M.
[7] abbreviates: Table 39, untreated B6D2F1 bone marrow, 10^−5M.
[8] abbreviates: Table 26, Balb/c bone marrow, 10^−5M.
Where [9] appears, read: Table 26, Balb/c bone marrow, 10^−7M.
The mark [10] stands for this setting: Table 26, Balb/c bone marrow, 10^−9M.
Setting [11] is: Table 13, bone marrow from Balb/c mice, 100 ng/ml.
[12] abbreviates: Table 38, untreated B6D2F1 bone marrow, concentration printed only as (μg/ml).
Where [13] appears, read: Table 10, testosterone-treated BDF1 mice, 500 ng intravenously (footnote: 100 ng/ml), marrow 48 hours later.
[14] abbreviates: Table 9, bone marrow from Balb/c mice, 100 ng/ml.

No end group written: not given here. *: point of attachment. Biotin = O=C1N[C@H]2[C@H](CS[C@H]2CCCCC(=O)*)N1; C4 linker = not defined here

With “1-94 fragment: purified formic-acid cleaved fragment, amino acids 1-94 of human alpha hemoglobin chain”, the “% Kill” value with CFU-MIX [1] (Table 20, Balb/c bone marrow, 100 ng/ml) stood at 0%.

For `CC(C)C[C@@H](NC(=O)[C@H](Cc1ccccc1)NC(=O)CNC(=O)[C@@H](C)NC(=O)[C@@H](N)Cc1ccc(O)cc1)C(=O)O` [DADLE, reference compound], the “% Kill” value with CFU-MIX [2] (setting [6]) and in the test on CFU-MIX [2] (setting [7]) was 0% throughout.

In the case of `C[C@@H](NC(=O)[C@@H](N)Cc1ccc(O)cc1)C(=O)NCC(=O)N(C)[C@@H](Cc1ccccc1)C(=O)NCCO` [DAMGO, (D-Ala^2,N-Me-Phe^4,Gly-ol^5)-Enkephalin, reference compound], the “% Kill” value with CFU-MIX [1] (setting [8]) was 15%; in the test with CFU-MIX [1] (setting [9]), 0%; in the test on CFU-MIX [1] (setting [10]), 38%; in the test on CFU-GEMM [3] (Table 35, Patient #2, 10^−7M), 15%; in the test with CFU-GEMM [3] (Table 35, Patient #2, 10^−9M), 0%.

Turning to `CN1CC[C@]23c4c5ccc(O)c4O[C@H]2[C@@H](O)C=C[C@H]3[C@H]1C5` [Morphine, morphine, reference compound], the “% Kill” value is 10% in the test on CFU-MIX [1] (Table 25, Balb/c bone marrow, 10^−7M); 15% in the test with CFU-MIX [1] (Table 25, Balb/c bone marrow, 10^−9M); 32% with CFU-MIX [1] (Table 25, Balb/c bone marrow, 10^−11M); 24% in the test on CFU-GEMM [3] (Table 35, Patient #2, 10^−7M); 0% with CFU-GEMM [3] (Table 35, Patient #2, 10^−9M).

`C=CCN1CC[C@]23c4c5ccc(O)c4O[C@H]2C(=O)CC[C@@]3(O)[C@H]1C5` [Naloxone, naloxone, reference compound]: the “effect of naloxone itself on the assay” value with CFU-MIX [1] (10^−5-10^−7M) is reported as “no effect”. Further, the “% Kill” value in the test with CFU-MIX [1] (Table 28, naloxone alone, 10^−5M final concentration) came out at 36%; in the test with CFU-MIX [1] (Table 30, 10^−10M) it was 0%.

On to “(D-Arg^2, Lys^4)-Dermorphin-(1-4)-amide [DALDA, reference compound]”, for which the “% Kill” value is 47% in the test on CFU-MIX [1] (setting [8]); 0% in the test on CFU-MIX [1] (setting [9]); 34% in the test on CFU-MIX [1] (setting [10]); 41% in the test with CFU-MIX [2] (setting [6]); 24% in the test with CFU-MIX [2] (setting [7]).

On to “Biotinylated alpha chain: human hemoglobin alpha chain from hemoglobin treated with NHS LC Biotin”, for which the “% Kill” value in the test with CFU-MIX [1] (setting [11]) is given as 7%.

As to “Biotinylated beta chain: human hemoglobin beta chain from hemoglobin treated with NHS LC Biotin”, the “% Kill” value with CFU-MIX [1] (setting [11]) came out at 25%.

With “Biotinylated peptide 43-55: Peptide 43-55 with biotin linked via a C4 carbon linker to the N-terminal NH2 of Phe43 ({Biotin-C4 linker}-FPHFDLSHGSAQV; reading uncertain; UniProt P69905 44-56, looked up, fragment)”, the “% Kill” value in the test with CFU-MIX [1] (Table 24, 1 ng/ml) was 15%.

In the case of “DALTNAVAHVDDMPNALSA [Peptide 64-82, amino acids 64-82 of human alpha hemoglobin]”, the “% Kill” value in the test with CFU-GEMM [4] (1 ng/ml) turned out to be 21%; with CFU-GEMM [4] (10 ng) it was 20%; in the test on CFU-GEMM [4] (100 ng/ml) it was 39%; in the test on CFU-MIX [1] (Table 18, 100 ng/ml), 9%; in the test on CFU-MIX [2] (Table 42, untreated B6D2F1 bone marrow, 1 μg/ml), 25%.

As to “H-D-Phe-Cys-Tyr-D-Trp-Orn-Thr-Pen-Thr-NH2 [CTOP, reference compound]”, the “effect of CTOP itself on the assay” value in the test with CFU-MIX [1] (10^−7 M) is recorded as “no effect”. Also, the “% Kill” value in the test on CFU-MIX [1] (Table 31, CTOP alone, 10^−7M final concentration) was 36%.

Regarding “Human beta chain: purified human hemoglobin beta chain”, the “% Kill” value in the test on CFU-MIX [1] (Table 11, bone marrow from Balb/c mice, 100 ng/ml) was 41%; in the test with CFU-MIX [1] (setting [11]), 55%; with CFU-MIX [2] (setting [12]) it was 55%.

Take “Human delta chain: purified human hemoglobin delta chain”: the “% Kill” value was −4% in the test on CFU-MIX [1] (Table 12, bone marrow from Balb/c mice, 100 ng/ml) and 10% in the test on CFU-MIX [1] (Table 29, 100 ng/ml, alone).

For the molecule Human hemoglobin: human hemoglobin, the “% Kill” value in the test on CFU-MIX [5] (Table 14, testosterone-treated BDF1 mice, 500 ng/mouse) was −31%.

As to “Leu-Val-Val-Tyr-Pro-Trp-Thr-Gln-Arg-Phe (LVVYPWTQRF; printed: Leu-Val-Val-Tyr-Pro-Trp-Thr-Gln-Arg-Phe) [Hemorphin 10, reference compound]”, the “% Kill” value amounted to 1% in the test on CFU-MIX [1] (Table 18, 100 ng/ml) and 0% in the test with CFU-MIX [1] (Table 28, 100 ng/ml, alone).

For the molecule “Porcine alpha chain: porcine hemoglobin alpha chain purified from peripheral red blood cells as in FIG. 21”, the “% Kill” value was 5% with CFU-MIX [5] (setting [13]) and −4% in the test on CFU-MIX [1] (setting [14]).

For the molecule “Porcine beta chain: porcine hemoglobin beta chain purified from peripheral red blood cells as in FIG. 21”, the “% Kill” value is −5% in the test with CFU-MIX [5] (setting [13]) and −14% in the test on CFU-MIX [1] (setting [14]).

With “VVYPWTQR [Hemorphin 7, reference compound]”, the “% Kill” value in the test with CFU-MIX [1] (Table 18, 100 ng/ml) is 0%.

B1: Human Myoglobin: human myoglobin (protein, UniProt P02144 2-154, looked up)
Myoglobin: GLSDGEWQLVLNVWGKVEADIPGHGQEVLIRLFKGHPETLEKFDKFKHLKSEDEMKASEDLKKHGATVLTALGGILKKKGHHEAEIKPLAQSHATKHKIPVKYLEFISECIIQVLQSKHPGDFGADAQGAMNKALELFRKDMASNYKELGFQG
Turning to B1, the “stem cell inhibitory activity, in words” value in the test on CFU-MIX [1] (CFU-MIX cycling assay) was “inactive”. For the same molecule, the “% Kill” value with CFU-MIX [2] (setting [12]) amounted to 30%.
